Results published in patent US10428030B2, “Heterocycle derivatives and their use for the treatment of CNS disorders” (Trillium Therapeutics Inc., priority 2015, dated 2019).

Legend:
[1] = system: Male, Sprague-Dawley rats; assay: Spinal Nerve Injury (SNI) model (neuropathic pain); assay type: in vivo, rat; conditions: 60 mg/kg i.p.
From the text: The SNI model of neuropathic pain was developed in rats using the procedure described by Decostered and Woolf, Pain 2000, 87: 149-158. Under isoflurane anesthesia, the skin on the lateral surface of the thigh was incised and a section was made directly through the biceps femoris muscle exposing the sciatic nerve and its three terminal branches: the sural, common peroneal and tibial nerves. The common peroneal and the tibial nerves were tight-ligated with 6-0 suture and sectioned distal to the ligation, removing 2-4 mm of the distal nerve stump. Extreme care was taken to avoid any contact with or stretching of the intact sural nerve. Following surgery, hemostasis was confirmed and the muscles were sutured in layers using 4-0 suture and the skin was closed with 4-0 suture and metal clips.
Male, Sprague-Dawley rats were used. Testing of compounds was done 21 days post-operatively. After initial basal readings were taken, the test compound or vehicle was administered. The readings were taken again 30, 60 and 180 min after the compound/vehicle administration. Both the control (uninjured) and the SNI paw were tested. The presence of mechanical allodynia was assessed using the Dynamic Plantar Aesthesiometer (Ugo Basile, Italy) which is a modified version of the Von Frey Hair test. […] A single reading was taken per timepoint. […]
Cold allodynia was assessed by using the acetone test. […]

[2] = system: corneal kindled mice; assay: Corneal kindling mouse model (focal seizures); assay type: in vivo
From the text: Mice are kindled electrically with 3 sec stimulation, 8 mA, 60 Hz, and coneal electrodes to a criterion of 10 consecutive Stage 5 seizures (facial clonus and head nodding progressing to forelimb clonus, and finally rearing and falling accompanied by a generalized clonic seizure as described by Racine (Racine R J. Neurophysiol., 1972. 32: p. 281-294) Stage 5 is generally reached after twice daily stimulation for 8 days. With continued stimulation once a day, animals usually progress to a reproducible Stage 5 after 10-14 additional days. At least 72 hours after the mice have been kindled, the test substance is administered either i.p. or p.o. and, at the previously determined TPE, each animal is given the electrical stimulus indicated above. Following stimulation, the animals are observed for the presence or absence of the rearing and falling criteria of a Stage 5 seizure. Treated animals not displaying a Stage 3, 4, or 5 seizure are considered protected. The dose of the test substance is varied between the limits of 0 and 100% efficacy, and the ED50 and 95% confidence intervals calculated by probit analysis. Mean values and the S.E.M. are calculated for the length of clonus and seizure duration and p values are determined by the Student's t-test.

O=C1COc2cc(OCc3ccc(OC(F)F)cc3)ccc2N1 [Compound I(B)]
mechanical allodynia in the denervated paw (Von Frey test) [1]: effective at reducing the mechanical allodynia | cold allodynia ([1]; neuropathic rats): significantly reduced | ED50 ([2]; Mus musculus, corneal kindled mice, read-out: ED50, suppression of fully kindled (stage 5) seizures): 119 ± 1.81 mg/kg | Average Seizure ([2]; dose 35 mg/kg): 5 | N/F (number of animals active over the number tested) ([2]; dose 35 mg/kg): 0/8 | Average Seizure ([2]; dose 70 mg/kg): 4.6 | N/F (number of animals active over the number tested) ([2]; dose 70 mg/kg): 1/8 | Average Seizure ([2]; dose 140 mg/kg): 2.4 | N/F (number of animals active over the number tested) ([2]; dose 140 mg/kg): 5/8 | Average Seizure ([2]; dose 300 mg/kg): 0.8 | N/F (number of animals active over the number tested) ([2]; dose 300 mg/kg): 8/8 | effect on fully kindled (stage 5) seizures ([2]; vs vehicle controls): dose related suppression of fully kindled (stage 5) seizures
